Assay: UV-spectrum in ethanol
Format: physicochemical
Conditions: for UV-spectrum: ε: at λmax, in M-1cm-1 (unit assumed)

SMILES	UV-spectrum: λmax	UV-spectrum: ε
CCN(CC)c1ccc(-n2nc3ccccc3n2)c(O)c1 [Example A-1]	385 nm	29591
CCCCCC(=O)Nc1ccc(-n2nc3ccccc3n2)c(O)c1 [Example A-2]	346 nm	29933

— patent publication US8221729B2, “Use of aminophenylbenzotriazole derivatives for protecting human and animal skin and hair from the harmful effects of UV radiation and cosmetic compositions thereof” (BASF SE, priority 2006, dated 2012)
